The nature of data set [1]: Human liver microsome stability assay. The conditions noted are these: both sexes, human, microsomes, pH 7.4. The class given is in vitro ADME.
The target in data set [2] is human BRD4 first bromodomain (BDI_K57-E168) (Homo sapiens (Human), UniProt O60885). Put plainly: TR-FRET bromodomain binding assay, BRD4 first bromodomain.
Data set [3] is described as follows: Mouse liver microsome stability assay. The class given is in vitro ADME. The conditions noted are these: male, CD1, mouse, microsomes, pH 7.4. (Liver microsomes are vesicles of endoplasmic reticulum, rich in cytochrome P450 enzymes.)
The target in data set [4] is human BRD4 second bromodomain (BDII_E352-M457) (Homo sapiens (Human), UniProt O60885). Put plainly: TR-FRET bromodomain binding assay, BRD4 second bromodomain.
Data set [5] concerns breast cancer cell line MX-1. Briefly: MX-1 cell line proliferation assay. Type of data set: cell-based, human. The conditions noted are these: Homo sapiens, MX1, 72 h; MX-1 cells, 3-day proliferation, Cell Titer Glo; read-out: Cellular proliferation: EC50. A general note: In ATP-based viability assays light output follows the ATP content of the culture.
Data set [6] in a line: Rat liver microsome stability assay. The conditions noted are these: rat liver microsomes (male Sprague-Dawley), 0.5 μM test compound, pH 7.4, 37° C.; for half-life at 0.5 μM: 0.25 mg/mL microsomal protein, read-out: Stability in rat liver microsomes (t1/2 in minutes). Type of data set: in vitro ADME.

Molecules are shown by their SMILES.

18 molecules from US9296741B2, “Bromodomain inhibitors” (priority 2012, dated 2016) can be followed below.

With `Cn1cc(-c2cc(-c3cccnc3)ccc2OCC2CC2)c2cc[nH]c2c1=O` [Example 315, 4-[2-(cyclopropylmethoxy)-5-(pyridin-3-yl)phenyl]-6-methyl-1,6-dihydro-7H-pyrrolo[2,3-c]pyridin-7-one], the figures for the half-life at 0.5 μM in data set [1], in data set [3] and in data set [6] were 34 min, 11 min and 4 min, respectively. The Ki (as a rule, the equilibrium dissociation constant of an inhibitor or competing ligand from its target) in data set [2] came out at 37.6 nM; in data set [4], 231 nM. Further, the EC50 in data set [5] was found to be 160 nM.

As for `Cn1cc(-c2cc(C(=O)NC3CCOC3)ccc2Oc2ccc(F)cc2F)c2cc[nH]c2c1=O` (stereo not drawn) [Example 51, 4-(2,4-difluorophenoxy)-3-(6-methyl-7-oxo-6,7-dihydro-1H-pyrrolo[2,3-c]pyridin-4-yl)-N-(tetrahydrofuran-3-yl)benzamide], the half-life at 0.5 μM is 6 min in data set [1], more than 120 min in data set [3] and 63 min in data set [6]. In addition, the figures for the inhibition constant (Ki) in data set [2] and in data set [4] were 9.7 nM and 16.1 nM, respectively. Moreover, the EC50 in data set [5] amounted to 101 nM.

Regarding `Cn1cc(-c2cc(S(C)(=O)=O)ccc2Oc2cccc(Cl)c2)c2cc[nH]c2c1=O` [Example 153, 4-[2-(3-chlorophenoxy)-5-(methylsulfonyl)phenyl]-6-methyl-1,6-dihydro-7H-pyrrolo[2,3-c]pyridin-7-one], the half-life at 0.5 μM in data set [1] came out at 33 min; in data set [3] it was 11 min; in data set [6], 8 min. The Ki in data set [2] was 22.8 nM; in data set [4], 8.2 nM. The EC50 in data set [5] stood at 93.3 nM.

With `Cn1cc(-c2cc(S(C)(=O)=O)ccc2Oc2ccc(CC(N)=O)cc2)c2cc[nH]c2c1=O` [Example 165, 2-{4-[2-(6-methyl-7-oxo-6,7-dihydro-1H-pyrrolo[2,3-c]pyridin-4-yl)-4-(methylsulfonyl)phenoxy]phenyl}acetamide], the figures for the half-life at 0.5 μM in data set [1], in data set [3] and in data set [6] were more than 120 min, 27 min and 111 min, respectively. Further, the Ki in data set [2] turned out to be 5 nM; in data set [4], 2.2 nM. For the same molecule, the EC50 in data set [5] was 104 nM.

Turning to `Cn1cc(-c2cc(S(=O)(=O)C(F)(F)F)ccc2NCC2CC2)c2cc[nH]c2c1=O` [Example 244, 4-{2-[(cyclopropylmethyl)amino]-5-[(trifluoromethyl)sulfonyl]phenyl}-6-methyl-1,6-dihydro-7H-pyrrolo[2,3-c]pyridin-7-one], the half-life at 0.5 μM in data set [1] amounted to 53 min; in data set [3], 87 min; in data set [6] it was 6 min. The inhibition constant (Ki) in data set [2] came to 23.2 nM; in data set [4] it was 73.7 nM. Besides, the EC50 in data set [5] was determined as 254 nM.

Consider `Cn1cc(-c2cc(S(C)(=O)=O)ccc2OC2CCCCCC2)c2cc[nH]c2c1=O` [Example 220, 4-[2-(cycloheptyloxy)-5-(methylsulfonyl)phenyl]-6-methyl-1,6-dihydro-7H-pyrrolo[2,3-c]pyridin-7-one], for which the half-life at 0.5 μM is 5 min in data set [1], 4 min in data set [3] and 5 min in data set [6]. Also, the figures for the Ki in data set [2] and in data set [4] were 2.8 nM and 1.2 nM, respectively. Besides, the EC50 in data set [5] was found to be 21.3 nM.

Take `Cn1cc(-c2cc(N3CCCS3(=O)=O)ccc2Oc2ccc(F)cc2F)c2cc[nH]c2c1=O` [Example 43, 4-[2-(2,4-difluorophenoxy)-5-(1,1-dioxido-1,2-thiazolidin-2-yl)phenyl]-6-methyl-1,6-dihydro-7H-pyrrolo[2,3-c]pyridin-7-one]: the values for the half-life at 0.5 μM in data set [1], in data set [3] and in data set [6] were 34.9 min, 5 min and 2 min, respectively. Moreover, the inhibition constant (Ki) in data set [2] turned out to be 1.7 nM; in data set [4] it was 1.2 nM. In addition, the EC50 in data set [5] is 16.9 nM.

Turning to `CCS(=O)(=O)Nc1ccc(Oc2ccc(F)cc2F)c(-c2cn(C)c(=O)c3[nH]c(CN4CCN(C)CC4)cc23)c1` [Example 339, N-[4-(2,4-difluorophenoxy)-3-{6-methyl-2-[(4-methylpiperazin-1-yl)methyl]-7-oxo-6,7-dihydro-1H-pyrrolo[2,3-c]pyridin-4-yl}phenyl]ethanesulfonamide], the half-life at 0.5 μM was 100 min in data set [1], 67 min in data set [3] and 76 min in data set [6]. Also, the Ki in data set [2] came out at 0.8 nM; in data set [4], 31.6 nM. The EC50 in data set [5] is 77.4 nM.

Consider `Cn1cc(-c2cc(S(N)(=O)=O)cnc2Nc2ccccc2)c2cc[nH]c2c1=O` [Example 111, 5-(6-methyl-7-oxo-6,7-dihydro-1H-pyrrolo[2,3-c]pyridin-4-yl)-6-(phenylamino)pyridine-3-sulfonamide], for which the figures for the half-life at 0.5 μM in data set [1], in data set [3] and in data set [6] were more than 120 min, 63 min and 42 min, respectively. Further, the inhibition constant Ki in data set [2] turned out to be 8.7 nM; in data set [4], 10.3 nM. Further, the EC50 in data set [5] was 199 nM.

For the molecule `Cn1cc(-c2cc(C(=O)NCC(C)(C)O)ccc2Oc2ccc(F)cc2F)c2cc[nH]c2c1=O` [Example 123, 4-(2,4-difluorophenoxy)-N-(2-hydroxy-2-methylpropyl)-3-(6-methyl-7-oxo-6,7-dihydro-1H-pyrrolo[2,3-c]pyridin-4-yl)benzamide], the figures for the half-life at 0.5 μM in data set [1], in data set [3] and in data set [6] were more than 120 min, 45 min and more than 120 min, respectively. Moreover, the Ki in data set [2] turned out to be 27.1 nM; in data set [4], 36.1 nM. Moreover, the EC50 in data set [5] came to 118 nM.

Take `Cn1cc(-c2cc(S(C)(=O)=O)ccc2OCCN2CCOCC2)c2cc[nH]c2c1=O` [Example 227, 6-methyl-4-{5-(methylsulfonyl)-2-[2-(morpholin-4-yl)ethoxy]phenyl}-1,6-dihydro-7H-pyrrolo[2,3-c]pyridin-7-one]: the figures for the half-life at 0.5 μM in data set [1], in data set [3] and in data set [6] were 50 min, more than 120 min and 70 min, respectively. Further, the results for the inhibition constant (Ki) in data set [2] and in data set [4] were 73.9 nM and 211 nM, respectively. Moreover, the EC50 in data set [5] was determined as 658 nM.

Turning to `Cn1nc(-c2ccccc2Oc2ccccc2)c2cc[nH]c2c1=O` [Example 82, 6-methyl-4-(2-phenoxyphenyl)-1,6-dihydro-7H-pyrrolo[2,3-d]pyridazin-7-one], the values for the half-life at 0.5 μM in data set [1], in data set [3] and in data set [6] were 19 min, 2 min and 2 min, respectively. Besides, the values for the Ki in data set [2] and in data set [4] were 519 nM and 183 nM, respectively. Besides, the EC50 in data set [5] amounted to 767 nM.

Take `CCOC(=O)c1cc2c(-c3cc(NS(C)(=O)=O)ccc3Oc3ccccc3)cn(C)c(=O)c2[nH]1` [Example 71, ethyl 6-methyl-4-{5-[(methylsulfonyl)amino]-2-phenoxyphenyl}-7-oxo-6,7-dihydro-1H-pyrrolo[2,3-c]pyridine-2-carboxylate]: the half-life at 0.5 μM in data set [1] turned out to be 2 min; in data set [3], 6 min. The inhibitory constant (Ki) was determined as 0.81 nM in data set [2] and 1.2 nM in data set [4]. Further, the EC50 in data set [5] was determined as 17.5 nM. Besides, in data set [6] ([…] microsomal protein), the “Stability in rat liver microsomes (t1/2 in minutes)” value worked out at 1 min.

Regarding `Cn1cc(-c2cc(S(C)(=O)=O)ccc2NCC2CCOC2)c2cc[nH]c2c1=O` (stereo not drawn) [Example 201, 6-methyl-4-{5-(methylsulfonyl)-2-[(tetrahydrofuran-3-ylmethyl)amino]phenyl}-1,6-dihydro-7H-pyrrolo[2,3-c]pyridin-7-one], the half-life at 0.5 μM in data set [1] was 56 min; in data set [3] it was more than 120 min; in data set [6], 117 min. The inhibitory constant (Ki) is 10.2 nM in data set [2] and 40.7 nM in data set [4]. In data set [5], the EC50 was 135 nM.

On to `CCS(=O)(=O)Nc1ccc(Oc2ccccc2)c(-c2cn(C)c(=O)c3[nH]ccc23)c1` [Example 21, N-[3-(6-methyl-7-oxo-6,7-dihydro-1H-pyrrolo[2,3-c]pyridin-4-yl)-4-phenoxyphenyl]ethanesulfonamide], for which the half-life at 0.5 μM in data set [1] was more than 120 min; in data set [3], 22 min; in data set [6] it was 3 min. In addition, the Ki in data set [2] turned out to be 0.39 nM; in data set [4], 0.25 nM. For the same molecule, the EC50 in data set [5] came to 13.9 nM.

For the molecule `CCN(C)C(=O)c1cc2c(-c3cc(NS(C)(=O)=O)ccc3Oc3ccccc3)nn(C)c(=O)c2[nH]1` [Example 83, N-ethyl-N,6-dimethyl-4-{5-[(methylsulfonyl)amino]-2-phenoxyphenyl}-7-oxo-6,7-dihydro-1H-pyrrolo[2,3-d]pyridazine-2-carboxamide], the Ki in data set [2] was found to be 20.9 nM; in data set [4] it was 42.2 nM. Moreover, the half-life at 0.5 μM is 43 min in data set [3] and 3 min in data set [6]. For the same molecule, the EC50 in data set [5] stood at 424 nM.

On to `CN(C)Cc1cc2c(-c3cc(S(C)(=O)=O)ccc3Oc3ccc(F)cc3F)cn(C)c(=O)c2[nH]1` [Example 279, 4-[2-(2,4-difluorophenoxy)-5-(methylsulfonyl)phenyl]-2-[(dimethylamino)methyl]-6-methyl-1,6-dihydro-7H-pyrrolo[2,3-c]pyridin-7-one], for which the figures for the Ki in data set [2] and in data set [4] were 31.4 nM and 131 nM, respectively. The half-life at 0.5 μM is 91 min in data set [3] and 41 min in data set [6]. Moreover, the EC50 in data set [5] was 364 nM.

Regarding `Cn1cc(-c2cc(-c3cccc(F)c3)ccc2OCC2CC2)c2cc[nH]c2c1=O` [Example 334, 4-[4-(cyclopropylmethoxy)-3′-fluorobiphenyl-3-yl]-6-methyl-1,6-dihydro-7H-pyrrolo[2,3-c]pyridin-7-one], the results for the half-life at 0.5 μM in data set [1] and in data set [3] were 34 min and 21 min, respectively. The inhibitory constant (Ki) came out at 661 nM in data set [2] and 1170 nM in data set [4]. Besides, in data set [5], the EC50 came to 515 nM.
